In patent US20250171447A1, “ADENOSINE RECEPTOR ANTAGONISTS, PHARMACEUTICAL COMPOSITIONS AND THEIR USE THEREOF” (Merck Sharp & Dohme LLC, priority 2022, published 2025):
pIC50: −log10 of the molar value.

What was measured:
[1] = target: human A2A adenosine receptor (Homo sapiens (Human), UniProt P29274); assay: A2A receptor affinity binding assay (radioligand filtration binding or SPA, [3H]SCH58261); settings: membranes from HEK293 or CHO cells expressing human A2A; Method (A) filtration or Method (B) SPA
[2] = target: human A2B adenosine receptor (Homo sapiens (Human), UniProt P29275); assay: A2B binding affinity radioligand filtration binding assay; settings: membranes from HEK293 cells expressing human A2B; tritiated proprietary A2B antagonist
Sequence of human A2B adenosine receptor (P29275 whole entry): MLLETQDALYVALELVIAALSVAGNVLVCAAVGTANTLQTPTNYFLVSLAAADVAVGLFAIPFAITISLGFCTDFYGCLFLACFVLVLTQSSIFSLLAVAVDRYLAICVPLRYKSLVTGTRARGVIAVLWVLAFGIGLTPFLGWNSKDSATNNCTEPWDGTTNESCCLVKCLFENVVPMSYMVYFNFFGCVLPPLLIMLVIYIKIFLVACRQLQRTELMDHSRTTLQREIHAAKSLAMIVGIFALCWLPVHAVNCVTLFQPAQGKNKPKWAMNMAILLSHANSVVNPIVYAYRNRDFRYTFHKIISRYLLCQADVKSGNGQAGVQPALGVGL

Sequence of human A2A adenosine receptor (P29274 whole entry): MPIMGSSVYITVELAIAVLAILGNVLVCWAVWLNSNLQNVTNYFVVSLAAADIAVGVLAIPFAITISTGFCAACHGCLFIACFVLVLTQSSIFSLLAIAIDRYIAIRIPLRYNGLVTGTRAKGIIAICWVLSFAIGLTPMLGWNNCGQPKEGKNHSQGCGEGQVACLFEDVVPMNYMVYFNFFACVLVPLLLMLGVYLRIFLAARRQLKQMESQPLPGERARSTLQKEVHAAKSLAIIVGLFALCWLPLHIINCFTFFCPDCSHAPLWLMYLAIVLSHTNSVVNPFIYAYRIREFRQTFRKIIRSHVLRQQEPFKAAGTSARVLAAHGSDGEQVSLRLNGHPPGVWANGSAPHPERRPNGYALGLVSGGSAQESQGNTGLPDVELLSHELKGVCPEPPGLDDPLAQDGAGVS

Row | SMILES | pIC50 [1] | pIC50 [2]
1 | COc1cccc2c1nc(N)n1nc(C3CC3c3cn4ccnc4cc3C)nc21 (stereo not drawn) [Ex-7] | 8.89 | 7.18
2 | COc1cccc2c1nc(N)n1nc(C3CC3c3ccc4nncn4c3)nc21 (stereo not drawn) [Ex-13, 7-methoxy-2-[2-([1,2,4]triazolo[4,3-a]pyridin-6-yl)cyclopropyl][1,2,4] triazolo[1,5-c] quinazolin-5-amine] | 8.48 | 6.82
3 | COc1cccc2c1nc(N)n1nc([C@@H]3C[C@H]3c3ccccc3)nc21 [Ex-34, 7-methoxy-2-[(1r,2r)-2-phenylcyclopropyl] [1,2,4]triazolo[1,5-c] quinazolin-5-amine] | 10.00 | 7.74
4 | COc1cccc2c1nc(N)n1nc(C3CC3c3ccc4c(c3)CCNC4)nc21 (stereo not drawn) [Ex-38, 7-methoxy-2-[(1r,2r)-2-(1,2,3,4-tetrahydroisoquinolin-6-yl)cyclopropyl]-1,10b-dihydro[1,2,4]triazolo [1,5-c]quinazolin-5-amine] | 8.96 | 8.51
5 | CNC(=O)c1cccc(C2CC2c2nc3c4cccc(OC)c4nc(N)n3n2)c1 (stereo not drawn) [Ex-4, 3-[2-(5-amino-7-methoxy[1,2,4]triazolo [1,5-c]quinazolin-2-yl)cyclopropyl]-N-methylbenzamide] | 9.40 | 7.60
6 | COc1cccc2c1nc(N)n1nc(C3CC3c3cnn(CCO)c3)nc21 (stereo not drawn) [Ex-23, 2-{4-[2-(5-amino-7-methoxy[1,2,4]triazolo [1,5-c]quinazolin-2-yl)cyclopropyl]-1H-pyrazol-1-yl} ethan-1-ol] | 8.08 | 6.93
7 | COc1cccc2c1nc(N)n1nc(C3(c4ccccc4)CC3)nc21 [Ex-37, 7-methoxy-2-(1-phenylcyclopropyl) [1,2,4]triazolo[1,5-c] quinazolin-5-amine] | 7.75 | 5.70
8 | COc1cc(F)cc2c1nc(N)n1nc([C@H]3C[C@](O)(c4ccc(C(C)(C)O)nc4)C3)nc21 [Ex-139, (1s,3s)-3-(5-amino-9-fluoro-7-methoxy-[1,2,4]triazolo[1,5-c]quinazolin-2-yl)-1-(6-(2-hydroxypropan-2-yl)pyridin-3-yl)cyclobutan-1-ol] | 7.44 | 5.60
9 | COc1cccc2c1nc(N)n1nc(C3CC3c3cncc(C(C)(C)O)c3)nc21 (stereo not drawn) [Ex-16, 2-{5-[2-(5-amino-7-methoxy[1,2,4]triazolo [1,5-c]quinazolin-2-yl)cyclopropyl]pyridin-3-yl} propan-2-ol] | 8.40 | 7.81
10 | COc1cccc2c1nc(N)n1nc([C@@H]3C[C@H]3c3ccc(C(C)(C)O)cc3)nc21 [Ex-1, 2-(4-((1r,2r)-2-(5-amino-7-methoxy-[1,2,4]triazolo[1,5-c]quinazolin-2-yl)cyclopropyl)phenyl)propan-2-ol] | 7.76 | 7.58
11 | COc1cccc2c1nc(N)n1nc(C3CC3c3nc4ccccc4n3C)nc21 (stereo not drawn) [Ex-3, 7-methoxy-2-[2-(1-methyl-1H-benzimidazol-2-yl)cyclopropyl][1,2,4] triazolo[1,5-c] quinazolin-5-amine] | – | 8.54
12 | COc1cccc2c1nc(N)n1nc([C@H]3C[C@@H](c4ccc([C@H](N)C(F)F)cn4)C3)nc21 (single isomer, unassigned) [Ex-105] | 8.57 | –
13 | COc1cccc2c1nc(N)n1nc([C@H]3C[C@H](c4ncc(C5(O)COC5)cc4C)C3)nc21 [Ex-120, 3-{6-[trans-3-(5-amino-7-methoxy[1,2,4]triazolo[1,5-c]quinazolin-2-yl)cyclobutyl]-5-methylpyridin-3-yl}oxetan-3-ol] | 9.30 | –
14 | COc1cccc2c1nc(N)n1nc([C@H]3C[C@@H](c4ccc([C@@]5(C(F)(F)F)CCCCN5)cc4)C3)nc21 [Ex-99, 7-methoxy-2-(cis-3-{4-[(2R)-2-(trifluoromethyl)piperidin-2-yl]phenyl}cyclobutyl)[1,2,4]triazolo[1,5-c]quinazolin-5-amine] | 9.22 | –

Other lines, results leading:

Row | pIC50 [1] | pIC50 [2] | SMILES
15 | 7.01 | 6.06 | COc1cccc2c1nc(N)n1nc(C3CC3c3cnn(C)c3)nc21 (stereo not drawn) [Ex-27, 7-methoxy-2-[2-(1-methyl-1H-pyrazol-4-yl)cyclopropyl][1,2,4] triazolo[1,5-c] quinazolin-5-amine]
16 | 8.57 | 8.89 | COc1cccc2c1nc(N)n1nc([C@H]3C[C@H](c4ncc(C(C)(C)N)cc4F)C3)nc21 [Ex-85, 2-{trans-3-[5-(2-aminopropan-2-yl)-3-fluoropyridin-2-yl]cyclobutyl}-7-methoxy[1,2,4]triazolo[1,5-c]quinazolin-5-amine]
17 | 8.59 | 7.30 | COc1cccc2c1nc(N)n1nc([C@@H]3C[C@H]3c3cnn(C)c3)nc21 [Ex-2, 7-methoxy-2-((1r,2r)-2-(1-methyl-1H-pyrazol-4-yl)cyclopropyl)-[1,2,4]triazolo[1,5-c]quinazolin-5-amine]
18 | – | 8.80 | COc1cccc2c1nc(N)n1nc([C@H]3C[C@H](c4ncc(C(C)(C)N)cc4C)C3)nc21 [Ex-83, 2-((1r,3r)-3-(5-(2-aminopropan-2-yl)-3-methylpyridin-2-yl)cyclobutyl)-7-methoxy-[1,2,4]triazolo[1,5-c]quinazolin-5-amine]
19 | 7.90 | – | COc1cccc2c1nc(N)n1nc([C@H]3C[C@@H](c4ncc(C(C)(C)N)cc4F)C3)nc21 [Ex-86, 2-{cis-3-[5-(2-aminopropan-2-yl)-3-fluoropyridin-2-yl]cyclobutyl}-7-methoxy[1,2,4]triazolo[1,5-c]quinazolin-5-amine]
20 | 8.38 | – | COc1cccc2c1nc(N)n1nc([C@H]3C[C@@H](c4cnc(CN)nc4)C3)nc21 [Ex-112, 2-{(cis)-3-[2-(aminomethyl)pyrimidin-5-yl]cyclobutyl}-7-methoxy[1,2,4]triazolo[1,5-c]quinazolin-5-amine]
21 | 8.59 | – | COc1cccc2c1nc(N)n1nc([C@H]3C[C@H](c4ncc(C(C)(C)N)nc4C4CC4)C3)nc21 [Ex-125, 2-((1r,3r)-3-(5-(2-aminopropan-2-yl)-3-cyclopropylpyrazin-2-yl)cyclobutyl)-7-methoxy-[1,2,4]triazolo[1,5-c]quinazolin-5-amine]
22 | 8.42 | – | COc1cccc2c1nc(N)n1nc([C@H]3C[C@@H](c4ccc([C@@H](N)C(F)(F)F)cn4)C3)nc21 (single isomer, unassigned) [Ex-94]
23 | 8.66 | – | COc1cccc2c1nc(N)n1nc([C@H]3C[C@H](c4cnc(CN)nc4)C3)nc21 [Ex-113, 2-{trans-3-[2-(aminomethyl)pyrimidin-5-yl]cyclobutyl}-7-methoxy[1,2,4]triazolo[1,5-c]quinazolin-5-amine]
24 | 7.80 | – | COc1cccc2c1nc(N)n1nc([C@H]3C[C@@H](c4cnc(C(C)(C)N)c(C)n4)C3)nc21 [Ex-122, 2-((1s,3s)-3-(5-(2-aminopropan-2-yl)-6-methylpyrazin-2-yl)cyclobutyl)-7-methoxy-[1,2,4]triazolo[1,5-c]quinazolin-5-amine]
25 | 7.85 | – | COc1cccc2c1nc(N)n1nc([C@H]3C[C@H](c4ccc(C(C)(N)C(F)F)nc4)C3)nc21 (stereo partly drawn) [Ex-92, 2-{(1r,3r)-3-[6-(2-amino-1,1-difluoropropan-2-yl)pyridin-3-yl]cyclobutyl}-7-methoxy[1,2,4]triazolo[1,5-c]quinazolin-5-amine]
26 | 8.59 | – | COc1cccc2c1nc(N)n1nc([C@H]3C[C@H](c4ccc([C@H](N)C(F)F)cn4)C3)nc21 (single isomer, unassigned) [Ex-104]
27 | 8.64 | – | COc1cccc2c1nc(N)n1nc([C@H]3C[C@H](c4ccc([C@@H](N)C(F)(F)F)cn4)C3)nc21 (single isomer, unassigned) [Ex-93]
28 | 7.97 | – | COc1cccc2c1nc(N)n1nc([C@H]3C[C@H](c4ncc5c(n4)CNC5)C3)nc21 (single isomer, unassigned) [Ex-108, 2-((trans)-3-(6,7-dihydro-5H-pyrrolo[3,4-d]pyrimidin-2-yl)cyclobutyl)-7-methoxy-[1,2,4]triazolo[1,5-c]quinazolin-5-amine]
29 | 8.32 | – | COc1cccc2c1nc(N)n1nc([C@H]3C[C@H](c4cc(C)c(C(C)(C)N)cn4)C3)nc21 [Ex-81, 2-{trans-3-[5-(2-aminopropan-2-yl)-4-methylpyridin-2-yl]cyclobutyl}-7-methoxy[1,2,4]triazolo[1,5-c]quinazolin-5-amine]
30 | 8.09 | – | COc1cccc2c1nc(N)n1nc([C@H]3C[C@H](c4ccc(C(C)(C)N)c(C)n4)C3)nc21 (single isomer, unassigned) [Ex-117, 2-{trans-3-[5-(2-aminopropan-2-yl)-6-methylpyridin-2-yl]cyclobutyl}-7-methoxy[1,2,4]triazolo[1,5-c]quinazolin-5-amine]
31 | 9.15 | – | COc1cccc2c1nc(N)n1nc([C@H]3C[C@@H](c4cnc(N5CCN[C@H](C)C5)c(C)c4)C3)nc21 [Ex-101, 7-methoxy-2-(cis-3-{5-methyl-6-[(3R)-3-methylpiperazin-1-yl]pyridin-3-yl}cyclobutyl)[1,2,4]triazolo[1,5-c]quinazolin-5-amine]
32 | 8.82 | – | COc1cccc2c1nc(N)n1nc([C@H]3C[C@H](c4cnc(N5CCN[C@H](C)C5)c(C)c4)C3)nc21 [Ex-102, 7-methoxy-2-(trans-3-{5-methyl-6-[(3R)-3-methylpiperazin-1-yl]pyridin-3-yl}cyclobutyl)[1,2,4]triazolo[1,5-c]quinazolin-5-amine]
33 | 8.74 | – | COc1cccc2c1nc(N)n1nc([C@H]3C[C@@H](c4ncc(C5(N)COC5)cc4C)C3)nc21 [Ex-123, 2-{cis-3-[5-(3-aminooxetan-3-yl)-3-methylpyridin-2-yl]cyclobutyl}-7-methoxy[1,2,4]triazolo[1,5-c]quinazolin-5-amine]
34 | 8.40 | – | COc1cccc2c1nc(N)n1nc([C@H]3C[C@@H](c4ccc(C(N)C(F)F)cn4)C3)nc21 (stereo partly drawn) [Ex-74, 2-{cis-3-[5-(1-amino-2,2-difluoroethyl)pyridin-2-yl]cyclobutyl}-7-methoxy[1,2,4]triazolo[1,5-c]quinazolin-5-amine]
35 | 8.32 | – | COc1cccc2c1nc(N)n1nc([C@H]3C[C@@H](c4ccc(C(C)(C)N)c(C)n4)C3)nc21 (single isomer, unassigned) [Ex-118, 2-{cis-3-[5-(2-aminopropan-2-yl)-6-methylpyridin-2-yl]cyclobutyl}-7-methoxy[1,2,4]triazolo[1,5-c]quinazolin-5-amine]
